Assay: Amorphous content / crystalline disorder by isothermal calorimetry (IC TAM 3)
Type: physicochemical
Conditions: ursolic acid, five repeated micronization procedures
Description: 1 kg of each sample of ursolic acid (98% purity, Sigma Aldrich) of an average particle size of […] was micronized five times in devices having different hitting elements. The discs were cooled through a feeder opening with liquid nitrogen spraying to avoid overheating of the heat-sensitive substance.
The micronized samples were analyzed for particle size (Malvern MasterSizer 2000), while the extent of crystalline disorder of particles was quantified with isothermal calorimetry (IC TAM 3, TA instruments, USA). Data was recorded with proprietary software Digitam 4.2.

Amorphous Content (MICRONIZATION-1): 3.68 %, w/w
Amorphous Content (MICRONIZATION-2): 6.12 %, w/w
Amorphous Content (MICRONIZATION-3): 19.23 %, w/w
Compound: C[C@H]1[C@H](C)CC[C@]2(C(=O)O)CC[C@]3(C)C(=CC[C@@H]4[C@@]5(C)CC[C@H](O)C(C)(C)[C@@H]5CC[C@]43C)[C@H]12 [ursolic acid]

— patent publication US20150209794A1, “MODIFIED MICRONIZATION DEVICE AND METHOD THEREOF” (OEKOMINERAL AG, priority 2014, published 2015)
